The series is classed as physicochemical. The following applies: acidic conditions (pH 2.0), 310.2 K. How it is done:
The saturation shake-flask method was used to measure the aqueous solubility of the CBZ cocrystals in a pH 2.0 buffer solution at the eutectic point, where drug and cocrystal are in equilibrium with the solution. The eutectic point between the cocrystal and the drug was reached by suspending 80 mg of the cocrystal and 30 mg of CBZ in 2 mL of the buffer solution. The obtained suspension was stirred continuously for 72 h at 37.0 ± 0.1 °C. After equilibration, the final pH of the solution was measured. The suspension was diluted with the mobile phase after being filtered through a […] PTEF filter. Concentrations of compounds were analyzed by HPLC. The solid phases after the experiment were characterized by PXRD.
The column temperature was set to 40 °C.

Take `NC(=O)N1c2ccccc2C=Cc2ccccc21.O` [carbamazepine hydrate, reference compound]: the solubility entry is reported as “(8.30 ± 0.02)·10^−4 mol·l^−1”.

These data come from publication PMC10052035, “Virtual Screening, Structural Analysis, and Formation Thermodynamics of Carbamazepine Cocrystals” (Pharmaceutics, 2023).
